The test system of data set [1] is Drosophila model of Alzheimer's disease (motoneuron overexpression of human aβ42arc). As to the kind of experiment: Fly locomotor activity assay (DAM2 beam breaks). The data set is classed as in vivo. On the procedure:
(§1) Fig. 9 In vivo effects of compound 3b. Flies with motoneuron overexpression of the human aβ42arc (arctic mutation) (D42Gal4 > aβ42arc) or mock expression (D42Gal4 > LacZ) were fed with 3b (100 μM) or same volume of vehicle DMSO. a Twenty-day old adult abdominal motoneurons were analyzed and synapse number (nc82-positive spots) of the same motoneuron in different flies (16–19) were determined using Imaris, over the confocal 1 µm stacks. Data are plotted in graphs, where each grey triangle (aβ42arc flies fed with vehicle) and green triangle (aβ42arc flies fed with 3b) or each grey circle (control flies fed with vehicle) and green circle (control flies fed with 3b) represents one value. Horizontal line represents mean ± SEM. Data are analyzed statistically with unpaired two-tailored Student’s t test; ***P < 0.001. b Locomotor activity of individual 15 days old flies was recorded for 4 days in Drosophila Activity Monitors (DAM2, Trikinetics)[36], the total number of beam breaks per hour during two consecutive days was analyzed (the activity of the first two days is considered the habituation period and is discarded). Mean ± SEM of three independent experiments with 5–12 flies per condition each, were plotted and analyzed statistically with paired two-tailed Student’s t-test, *P < 0.05. Source data are provided as a Source Data file, ns non significant
(§2) To measure the physiological impact of this synaptic recovery, we evaluated fly locomotor activity. As described previously, overexpression of human aβ42arc peptide leads to severe locomotor dysfunction starting at day 15–20 post-eclosion[35].
(§3) Fifteen-day-old males were placed individually in locomotor activity monitor tubes (DAM2, TriKinetics Inc.) The DAM2 system automatically counts the number of beam breaks for flies walking in a horizontal tube over a specific period of time. This setup allowed for characterization of the locomotor and behavior rhythms of Drosophila. The tubes contained fly food with 100 µM compound 3b or same volume of DMSO. Flies were raised at 25 °C in 12-h light/12-h dark. In the first 2 days flies get habituated and the next 2 days the locomotor activity was quantified.

Data set [2] can be described thus: Fly locomotor activity assay (DAM2 beam breaks). In kind it is in vivo, Drosophila. On the procedure:
as §1, §2, §3

The target in data set [3] is T1, dNCS-1 (Drosophila melanogaster, UniProt Q9VWX8).
T1 construct: made in house; host or cells: E. coli
T1 sequence (Q9VWX8 1-187): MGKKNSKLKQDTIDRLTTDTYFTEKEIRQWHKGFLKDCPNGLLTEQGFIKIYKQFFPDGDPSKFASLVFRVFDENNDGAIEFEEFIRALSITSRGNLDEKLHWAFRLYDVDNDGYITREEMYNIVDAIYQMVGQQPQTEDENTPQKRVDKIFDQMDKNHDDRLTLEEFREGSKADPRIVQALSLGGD
The data set can be described thus: tr-NOESY, DOSY and 1H-NMR of DCL mixtures in the presence of dNCS-1. Particulars: 281 K, up to 15 days. In kind it is binding. As to the method: Fig. 4 HPLC-MS and NMR studies of the full dynamic combinatorial library. a DCL chromatograms after 5 h in the absence and in the presence of dNCS-1. Conditions: aldehyde 1 (1.2 µL, 50 mM), 2a–2e (3.6 µL, 50 mM), catalyst (1 µL, 12 M), dNCS-1:1 [1:1], Tris buffer (20 mM, pH 7.4), 1 mM CaCl2, 0.5 M NaCl, 1 mM DTT, T = 4 °C, 2% DMSO. DCC experiments were carried out in triplicate. b 1D-^1H NMR spectrum (red) of the mixture and DOSY experiment (black) of the DCL in the presence of dNCS-1 (281 K, 600 MHz). c Tr-NOESY spectrum of the DCL mixture in the presence of dNCS-1 (mixing time 200 ms, 281 K, 600 MHz). Amplification of the region δ 7.2–8.0 ppm. […]. The new signals that reveal the formation of 3b (aromatic region) and 2c (aliphatic region) are marked with stars. ^1H-STD-NMR (blue) and off-resonance (red) NMR spectra of the mixture 2b + 3c + dNCS-1 (281 K, 600 MHz) after 15 days
DOSY-NMR and tr-NOESY-NMR experiments were also recorded to follow the exchange process.
The experiments were performed on the same samples and spectrometer, at 281 K. The tr-NOESY mixing time was fixed at 200 ms. The DOSY experiments were acquired with 16 gradient increments to a final intensity decay of 90%.

Data set [4] deals with Drosophila model of Alzheimer's disease (motoneuron overexpression of human aβ42arc). As to the kind of experiment: Synapse number quantification at the neuromuscular junction of flies fed with compound. The data set is classed as in vivo. Particulars: vs DMSO. On the procedure:
Aβ42arc overexpressing flies and the corresponding control (LacZ expression) were fed with 3b or the solvent, DMSO, throughout all life cycle (Fig. 9 and see Methods section).
as §1, with “Data are plotted in graphs, where each grey triangle (aβ42arc flies fed with vehicle) and green triangle (aβ42arc flies fed with 3b) or each grey circle (control flies fed with vehicle) and green circle (control flies fed with 3b) represents one value. Horizontal line represents mean ± SEM.” left out, “Source data are provided as a Source Data file, ns non significant” left out
The Drosophila neuromuscular junction (NMJ) allows the accurate quantitative determination of the in vivo effects of drug application on a single glutamatergic synapse. […]

The conditions of data set [5]: pH 7.9. On the procedure:
Fluorescence-based experiments with 3a–3e were carried out to estimate their affinity to dNCS-1.

The target of data set [6] is T1, dNCS-1. The data set can be described thus: STD-NMR experiments with dNCS-1. In kind it is binding. The following applies: compound 1 mM, 10 μM dNCS-1, 281 K. On the procedure:
Fig. 5 ^1H-STD-NMR spectra of 3a–3e in the presence of dNCS-1. STD (blue) and off-resonance (red) NMR spectra acquired for compounds 3a–3e (1 mM) in the presence of 10 μM dNCS-1 (600 MHz, 281 K). Relative STD intensities are coded according to the color scale shown. The 100% STD signal corresponds to the resonance showing the highest intensity in each case and all other STD signals are calculated accordingly
The experiments were performed using a deuterated Tris (pH 7.9) buffered solution with an aliquot of DMSO-d6. A sample containing 10 μM of dNCS-1 and 1 mM of DCL species (molar ratio 1:100) was prepared. The STD experiments were acquired at 281 K on a Bruker Avance 600 MHz spectrometer equipped with a cryoprobe. […]. The same conditions were used for the acquisition of the STD-NMR spectra of the individual products with dNCS-1.

Setting [7] is: 100 μM in food, one value per fly.

Values joined by “and” are separate entries in the source; they are usually repeats but may differ in a detail not shown here. Equal values may be shown once.

`O=C(Cc1c[nH]c2ccccc12)NN=Cc1ccc([N+](=O)[O-])c(O)c1` (mixture of isomers) [3b]: in data set [1] (setting [7]), the “beam breaks per hour of individual flies, aβ42arc + 3b, Experiment 1” value is 327 and 264 and 198 and 235 and 195 and 320 and 256 and 104 and 272 and 274 and 106 and 220; the “beam breaks per hour of individual flies, aβ42arc + 3b, Experiment 2” value was 295 and 321 and 87 and 159 and 125 and 199 and 157 and 279 and 287 and 274; the “beam breaks per hour of individual flies, aβ42arc + 3b, Experiment 3” value was 140 and 89 and 136 and 171 and 263 and 178 and 216 and 151 and 91 and 146 and 160. In data set [1] (fed 100 μM, 15 days old flies, vs DMSO), the “locomotor activity of aβ42arc flies” value is listed as “locomotor deficit was recovered”. Moreover, in data set [2] (setting [7]), the “beam breaks per hour of individual flies, control + 3b, Experiment 1” value is 102 and 219 and 449 and 504 and 422 and 192 and 564; the “beam breaks per hour of individual flies, control + 3b, Experiment 2” value is 281 and 38 and 295 and 200 and 178 and 147; the “beam breaks per hour of individual flies, control + 3b, Experiment 3” value is 81 and 263 and 78 and 204 and 169. Further, the “locomotor activity of control flies” value in data set [2] (fed 100 μM, vs DMSO) is “does not reveal a significant difference”. Further, at dNCS-1 [3], the “binding to dNCS-1 (1H-NMR evolution of the mixture 3c + 2b with dNCS-1)” value is reported as “a dNCS-1 ligand”. The “synapse number in aβ42arc flies” value in data set [4] (fed 100 μM throughout life cycle, 20-day old adults) is reported as “pathological phenotype was largely suppressed”. For the same molecule, in data set [4] (fed 100 μM), the “synapse number in control (LacZ) flies” value is “no effect”. Further, in data set [5], the “solubility observed under the experimental conditions” value is listed as “soluble”. In addition, the “recognition by dNCS-1 in STD-NMR” value on dNCS-1 [6] is given as “largest STD intensities”.

(Values after PMC6595003, “Insights into real-time chemical processes in a calcium sensor protein-directed dynamic library” (Nature Communications, 2019).)
